In PubChem BioAssay AID652041 (Broad Institute, 2013) one finds AC35 and activity change, negative = inhibition data, which are given here for 69 compounds.

Activity calls are given as the source filed them.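 Rule for the calls: active = fitted curve reaching a 35% signal drop at a concentration under 10 µM, within twice the top tested dose; inconclusive = no clear call, values can overlap the other calls; inactive = the rest, including activity opposite to the expected direction.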

One assay relates to P. falciparum HB3 in RBCs, SYBR Green DNA fluorescence. Nature of the assay: growth inhibition of P. falciparum HB3, dose response, HB3 strain, red blood cells, SYBR Green, cherry-picked (AID 652041).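 Note: parasites exposed to compound for 72 hours before the DNA read.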
Conditions: not given
In the case of `COc1ccc2oc(=O)c(-c3csc(Nc4cccc(O)c4)n3)cc2c1`, the AC35 is 12 µM.

Take `Cc1c(C2(O)CCCCC2)[nH]c2ccc(C(F)(F)F)cc12`: the AC35 was 17.3 µM.

On to `c1ccc(CSc2ccc(-c3ccccn3)nn2)nc1`, for which the AC35 is 23 µM.

For `CN(c1ccccc1)c1nc(N2CCCC2)nc(-n2ccnc2)n1`, the AC35 is 11.1 µM.

On to `Nc1nc(-c2ccc(Oc3ccccc3)cc2)cs1`, for which the AC35 is 30.3 µM.

As to `Oc1ccc(/C=N/Nc2ccc(C(F)(F)F)cn2)c(O)c1`, the AC35 was 6.46 µM.

For the compound `Cc1nc(SCc2ccc(OCCC(C)C)cc2)n[nH]1`, the AC35 was 13.1 µM.

On to `CC(=O)C1=C(c2ccc(Br)cc2)C(=O)c2ccccc2C1=O`, for which the AC35 was 0.472 µM.

Regarding `CCCCNc1c(-c2ccc(-c3ccc(OC)cc3)c(OC)c2)nc2ccccn12`, the AC35 is 4.29 µM.

As to `CC(C)(C)C(O)C(Cc1ccccc1Cl)n1cncn1` (centres undefined), the AC35 is 39.3 µM.

As to `O=S1OC(c2ccccc2)c2cc(Cl)ccc21` (centres undefined), the AC35 is 16.8 µM.

Consider `COc1cc2cnc(-c3ccccc3)c(C(=O)c3ccc(F)cc3)c2cc1OC`, for which the AC35 is 21.6 µM.

Take `O=C1c2ccccc2-n2c1nc1ccccc1c2=O`: the AC35 was 0.0617 µM.

With `O=C(COc1ccc([N+](=O)[O-])cc1)Nc1nc(-c2ccccn2)cs1`, the AC35 is 6.38 µM.

For `Cc1cccc(Nc2nc(-c3ccc(O)cc3O)cs2)n1`, the AC35 is 18.6 µM.

For the compound `CCOC(=O)N1C(=O)C2(CCCCC2)N(c2ccccc2Cl)C1=S`, the AC35 was 30.5 µM.

For the compound `O=C(Oc1c(Cl)cc(Cl)c2cccnc12)c1cccs1`, the AC35 is 19 µM.

Regarding `O=C(CN1CC[n+]2c(-c3cccs3)csc21)c1ccc(-c2ccccc2)cc1`, the AC35 is 1.46 µM.

Consider `C=CCNC(=S)N1CCC(Cc2ccccc2)CC1`, for which the AC35 was 28 µM.

Consider `O=C(Nc1nc(-c2ccccn2)cs1)c1ccc(Br)s1`, for which the AC35 was 0.662 µM.

Consider `Cc1ccc(NC(=S)c2nc3ccccc3[nH]2)c(C)c1`, for which the AC35 is 5.68 µM.

With `O=C(NOC(=O)c1ccccc1)c1ccccc1`, the AC35 is 20.1 µM.

Regarding `CC1(C(=O)OCC(=O)Nc2ccc3ccccc3c2)CC1(Cl)Cl` (centres undefined), the AC35 is 31.2 µM.

Take `Cc1cc(C(=O)COC(=O)Cc2n[nH]c(=O)c3ccccc23)c(C)n1-c1cccc(C(F)(F)F)c1`: the AC35 was 4.22 µM.

Regarding `Cc1ccc(S(=O)(=O)Nc2ccc(O)c3cccnc23)cc1`, the AC35 was 6.27 µM.

For `O=[N+]([O-])c1cc(C(F)(F)F)ccc1NCCc1c[nH]c2ccc(O)cc12`, the AC35 was 24.6 µM.

On to `Cc1ccccc1C(=O)NNC(=S)NC(=O)c1ccc(Cl)cc1Cl`, for which the AC35 is 34.3 µM.

Regarding `CC(=O)NC(c1ccc(C)cc1)c1cc([N+](=O)[O-])c2cccnc2c1O` (centres undefined), the AC35 was 11.2 µM.

Consider `CCCCCOc1ccc(CSc2n[nH]c(C)n2)cc1`, for which the AC35 was 8.7 µM.

In the case of `O=CC1=C(c2ccccc2)Oc2ccccc2O1`, the AC35 was 7.46 µM.

On to `CN(C)c1nc(SCc2ccc(Cl)cc2)nc2c1CCCC2`, for which the AC35 was 33.5 µM.

On to `O=S(=O)(Nc1ccccc1)c1ccc(Oc2ncc(C(F)(F)F)cc2Cl)cc1`, for which the AC35 is 25.1 µM.

As to `O=C(OCC(=O)C12CC3CC(CC(C3)C1)C2)c1ccc(O)cc1`, the AC35 was 23.4 µM.

Turning to `C=CCNc1nc(-c2ccccn2)nnc1-c1ccccc1`, the AC35 was 2.22 µM.

As to `CC1=CC(C)(C)N(S(=O)(=O)c2ccc(C)cc2)c2ccc(C)cc21`, the AC35 is 18.4 µM.

As for `Cc1ccc(Sc2ccc(NC(=O)CCl)cc2)cc1C`, the AC35 is 0.321 µM.

`Nc1nc(-c2ccccc2)c(-c2ccc([N+](=O)[O-])cc2)s1`: the AC35 is 39.6 µM.

In the case of `Cc1ccc(-n2nnnc2SCC(=O)N2CCc3ccccc3C2)c(C)c1`, the AC35 is 28.7 µM.

Take `COc1ccccc1-c1sc2cc3c(cc2c1C#Cc1cncn1C)OCO3`: the AC35 is 2.96 µM.

System in a further assay: not listed separately
The description is as above. Conditions: P. falciparum HB3 in RBCs, SYBR Green DNA fluorescence; at 50 µM (top of the series).
As to `CCCCn1c(=O)c(C(=O)NCc2ccncc2)c(O)c2ccccc21`, the activity change, negative = inhibition was -14% (inactive).

Regarding `Cc1nc2ccc(C(=O)NCc3ccc4c(c3)OCO4)cc2s1`, the activity change, negative = inhibition was -24.7% (inactive).

On to `CCOC(=O)c1ccc(N2C(=O)CC(N3CCC(O)(c4ccc(Cl)cc4)CC3)C2=O)cc1` (centres undefined), for which the activity change, negative = inhibition was -5.74% (inactive).

With `Cc1cc(NS(=O)(=O)c2ccc(C3CCCCC3)cc2)no1`, the activity change, negative = inhibition was 0.534% (inactive).

On to `COc1ccc(N(C(=O)c2ccncc2)S(=O)(=O)c2ccc(F)cc2)cc1`, for which the activity change, negative = inhibition was -13.3% (inactive).

Regarding `CC12CCC(O)CC1=CCC1C2CCC2(C)C3=NN=CC3CC12` (centres undefined), the activity change, negative = inhibition is -17.5% (inactive).

Turning to `COc1ccc(N(C(=O)c2ccncc2)S(=O)(=O)c2ccccc2)cc1`, the activity change, negative = inhibition is -28% (inactive).

Take `O=C1N(c2ccc(Cl)cc2)C(c2cccnc2)N2CCCN12` (centres undefined): the activity change, negative = inhibition was -10.4% (inactive).

For `CCCOc1ccc2ccccc2c1/C=C1\SC(=O)NC1=O`, the activity change, negative = inhibition was -14.8% (inactive).

Turning to `Cc1cccc(C)c1N1C(=O)C2ON(c3ccccc3)C(c3ccncc3)C2C1=O` (centres undefined), the activity change, negative = inhibition was -11.3% (inactive).

As to `Oc1c(Br)cc(-c2ccccc2)cc1Br`, the activity change, negative = inhibition was -16% (inactive).

For the compound `Nc1nc2sc3c(c2c(=O)s1)CCCC3`, the activity change, negative = inhibition was -20.8% (inactive).

As for `CC1CCN(c2ccc3c(c2)S(=O)(=O)c2ccccc2C3=O)CC1`, the activity change, negative = inhibition is -1.13% (inactive).

As to `CCCn1c2ccccc2c2cc(C(=O)O)ccc21`, the activity change, negative = inhibition was -6.37% (inactive).

In the case of `CC1(C)CC(=O)C(N=Nc2ccc3ncsc3c2)=C(O)C1`, the activity change, negative = inhibition is -23.1% (inactive).

Regarding `COc1cccc(C(C)=C2SC(=S)NC2=O)c1`, the activity change, negative = inhibition is -7.61% (inactive).

As to `CCCOc1ccc(S(=O)(=O)n2cc(F)c(=O)[nH]c2=O)cc1`, the activity change, negative = inhibition is -21.3% (inactive).

Turning to `CC(C)NC(=O)NC(=O)COC(=O)c1ccc([N+](=O)[O-])cc1Cl`, the activity change, negative = inhibition is -11.6% (inactive).

Turning to `O=C(O)c1c(NC(=O)N2CCCC2)sc2c1CCCC2`, the activity change, negative = inhibition is -0.929% (inactive).

For `CCn1c(CNc2ccc(Cl)cc2)nnc1SCc1ccccc1`, the activity change, negative = inhibition was -25.3% (inactive).

Take `c1ccc(-c2ccc(OCCCn3cncn3)cc2)cc1`: the activity change, negative = inhibition was -10.3% (inactive).

Regarding `COC(OC)c1ccc(C#N)c(SCc2ccccc2)n1`, the activity change, negative = inhibition was -17.5% (inactive).

Turning to `CCOc1ccc(N/N=C(/C#N)C(N)=O)cc1`, the activity change, negative = inhibition is -12.5% (inactive).

As to `CC(C)CSc1n[nH]c(=S)s1`, the activity change, negative = inhibition is 1.38% (inactive).

In the case of `Clc1ccc(-c2n[nH]c3c2CCC3)cc1Cl`, the activity change, negative = inhibition is -19.3% (inactive).

With `COc1cc2c(c(OC)c1OC)-c1ccc(O)c(=O)cc1[C@@H](NC(C)=O)CC2`, the activity change, negative = inhibition is -18.5% (inactive).

`CCCSC(=S)c1c(C)[nH]n(-c2ccccc2)c1=O`: the activity change, negative = inhibition was -14.2% (inactive).

`CC1=NN(C(N)=S)C(=O)C1N=Nc1cccc(Cl)c1C` (centres undefined): the activity change, negative = inhibition is -12.3% (inactive).

For `CC1Oc2ccccc2C=C1/C=N/Nc1ccc(C(=O)O)cc1` (centres undefined), the activity change, negative = inhibition was -20.4% (inactive).

As for `c1ccc(Cn2cc(-c3cccnc3)cn2)cc1`, the activity change, negative = inhibition is -23.9% (inactive).
